This test deals with S. aureus GyrB ATPase (Staphylococcus aureus, UniProt P0A0K8). Put plainly: S. aureus GyrB ATPase inhibition (ammonium molybdate/malachite green phosphate detection). The test is classed as biochemical. The settings on record: compound concentration of 1 μM. Here is the method: S. aureus GyrB ATPase Inhibition Activity: Compounds may be tested for inhibition of S. aureus GyrB ATPase activity using an ammonium molybdate/malachite green-based phosphate detection assay (Lanzetta, P. A., L. J. Alvarez, P. S. Reinach, and O. A. Candia, 1979, 100: 95-97). Assays can be performed in multiwell plates in 30 μl reactions containing: 50 mM Hepes buffer pH 7.5, 75 mM ammonium acetate, 8.0 mM magnesium chloride, 0.5 mM ethylenediaminetetraacetic acid, 5% glycerol, 1.0 mM 1,4-Dithio-DL-threitol, 200 nM bovine serum albumin, 1.0 μg/ml sheared salmon sperm DNA, 250 pM E. coli GyrA, 250 pM S. aureus GyrB, 250 μM ATP, and compound in dimethylsulfoxide. Reactions can be quenched with […] of ammonium molybdate/malachite green detection reagent containing 1.2 mM malachite green hydrochloride, 8.5 mM ammonium molybdate tetrahydrate, and 1 M hydrochloric acid. Plates can be read in an absorbance plate reader at 650 nm and percent inhibition values can be calculated using dimethylsulfoxide (2%)-containing reactions as 0% inhibition and EDTA-containing ([…]) reactions as 100% inhibition controls. An IC50 measurement of compound potency for each compound can be determined from reactions performed in the presence of 10 different compound concentrations.
S. aureus GyrB ATPase, sequence (P0AES4 whole entry): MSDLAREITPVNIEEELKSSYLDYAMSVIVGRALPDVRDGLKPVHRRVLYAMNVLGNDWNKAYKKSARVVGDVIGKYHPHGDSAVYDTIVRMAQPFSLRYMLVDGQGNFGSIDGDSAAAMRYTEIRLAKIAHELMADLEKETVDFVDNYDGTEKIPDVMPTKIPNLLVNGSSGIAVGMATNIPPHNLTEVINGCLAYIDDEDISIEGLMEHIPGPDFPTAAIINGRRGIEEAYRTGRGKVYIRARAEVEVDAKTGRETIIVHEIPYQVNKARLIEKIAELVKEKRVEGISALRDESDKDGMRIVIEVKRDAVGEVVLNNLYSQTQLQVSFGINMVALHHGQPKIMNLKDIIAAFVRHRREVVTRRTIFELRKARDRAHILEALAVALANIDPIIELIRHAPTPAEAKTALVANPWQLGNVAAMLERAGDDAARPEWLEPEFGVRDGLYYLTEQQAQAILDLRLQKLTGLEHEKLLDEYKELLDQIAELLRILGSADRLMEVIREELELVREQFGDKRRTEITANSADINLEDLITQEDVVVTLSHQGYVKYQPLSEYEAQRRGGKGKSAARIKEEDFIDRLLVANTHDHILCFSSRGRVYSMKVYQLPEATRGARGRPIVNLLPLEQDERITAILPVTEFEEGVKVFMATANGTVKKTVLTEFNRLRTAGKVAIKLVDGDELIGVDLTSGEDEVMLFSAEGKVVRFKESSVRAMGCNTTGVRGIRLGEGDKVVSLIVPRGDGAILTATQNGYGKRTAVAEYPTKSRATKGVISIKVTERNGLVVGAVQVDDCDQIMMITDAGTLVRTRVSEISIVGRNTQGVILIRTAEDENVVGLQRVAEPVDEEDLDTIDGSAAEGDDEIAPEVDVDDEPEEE
S. aureus GyrB ATPase, sequence (P0A0K8 whole entry): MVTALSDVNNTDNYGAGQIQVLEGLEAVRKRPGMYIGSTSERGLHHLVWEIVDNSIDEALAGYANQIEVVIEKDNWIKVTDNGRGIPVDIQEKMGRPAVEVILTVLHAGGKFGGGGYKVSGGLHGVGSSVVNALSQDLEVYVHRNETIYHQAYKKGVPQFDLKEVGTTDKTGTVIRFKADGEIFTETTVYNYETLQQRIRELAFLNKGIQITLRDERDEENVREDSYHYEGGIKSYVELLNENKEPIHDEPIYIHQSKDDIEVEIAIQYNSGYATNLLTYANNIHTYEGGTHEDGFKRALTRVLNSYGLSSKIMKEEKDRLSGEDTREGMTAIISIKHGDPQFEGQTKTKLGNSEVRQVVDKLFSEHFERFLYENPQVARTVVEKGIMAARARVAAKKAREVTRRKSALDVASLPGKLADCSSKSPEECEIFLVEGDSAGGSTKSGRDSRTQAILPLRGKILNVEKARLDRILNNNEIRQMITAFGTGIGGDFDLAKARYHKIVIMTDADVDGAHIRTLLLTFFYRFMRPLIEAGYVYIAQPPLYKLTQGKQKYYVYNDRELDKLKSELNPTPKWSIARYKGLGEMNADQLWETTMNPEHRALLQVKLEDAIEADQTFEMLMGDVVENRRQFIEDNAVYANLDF
Compounds of the invention were tested in an assay substantially similar to the assay described above for measuring the inhibition of S. aureus GyrB ATPase. Percent inhibition of S. aureus GyrB ATPase at a compound concentration of 1 μM (unless otherwise noted) is disclosed in the following table: […]
In the case of `COC(=O)c1sc(N2CC[C@@H](NC(=O)c3[nH]c(C)c(Cl)c3Cl)[C@@H](OC)C2)nc1-c1ccn[nH]1` [Example 62], the inhibition (as a rule, the relative decrease from the control value, in per cent) at 1 µM was determined as 99.9%.

As to `CO[C@H]1CN(c2nc(-c3ncccc3F)c(C(=O)O)s2)CC[C@H]1NC(=O)c1[nH]c(C)c(Cl)c1C#N` [Example 123, 2-((3S,4R)-4-(4-chloro-3-cyano-5-methyl-1H-pyrrole-2-carboxamido)-3-methoxypiperidin-1-yl)-4-(3-fluoropyridin-2-yl)thiazole-5-carboxylic acid], the inhibition at 1 µM is 104%. With `CCOC(=O)c1sc(N2CC[C@@H](NC(=O)c3[nH]c(C)c(Cl)c3Cl)[C@@H](F)C2)nc1-c1ncccn1` [Example 45] the figure was 100%; with `COCn1ccnc1-c1nc(N2CC[C@@H](NC(=O)c3[nH]c(C)c(Cl)c3Cl)[C@@H](OC)C2)sc1C(=O)O` [Example 17, 2-((3S,4R)-4-{[(3,4-Dichloro-5-methyl-1H-pyrrol-2-yl)carbonyl]amino}-3-methoxypiperidin-1-yl)-4-[1-(methoxymethyl)-1H-imidazol-2-yl]-1,3-thiazole-5-carboxylic acid], 97.7%; with `COC(=O)c1sc(N2CC[C@@H](NC(=O)c3[nH]c(C)c(Cl)c3Cl)[C@@H](F)C2)nc1-c1ncnn1C` [Example 67], 75.2%.

Regarding `CCOC(=O)c1sc(N2CC[C@@H](NC(=O)c3[nH]c(C)c(Cl)c3Cl)[C@@H](OC)C2)nc1-c1nc(OC)cc(OC)n1` [Example 52], the inhibition at 1 µM is 101%. With `CCOC(=O)c1sc(N2CC[C@@H](NC(=O)c3[nH]c(C)c(Cl)c3Cl)[C@@H](OC)C2)nc1-c1cc(N(C)C)nc(N(C)C)n1` [Example 50] the figure was 97%.

Take `Cc1[nH]c(C(=O)N[C@@H]2CCN(c3nc(-c4ccccn4)c(C(=O)O)s3)C[C@@H]2F)c(Cl)c1Cl` [Example 8, 2-((3S,4R)-4-{[(3,4-Dichloro-5-methyl-1H-pyrrol-2-yl)carbonyl]amino}-3-fluoropiperidin-1-yl)-4-pyridin-2-yl-1,3-thiazole-5-carboxylic acid]: the inhibition at 1 µM amounted to 106%. With `CCOC(=O)c1sc(N2CC[C@@H](NC(=O)c3[nH]c(C)c(Cl)c3Cl)[C@@H](F)C2)nc1-c1cn(C)cn1` [Example 78] the figure was 101%. Take `COCn1ccnc1-c1nc(N2CC[C@@H](NC(=O)c3[nH]c(C)c(Cl)c3Cl)[C@@H](F)C2)sc1C(=O)O` [Example 19, 2-((3S,4R)-4-{[(3,4-Dichloro-5-methyl-1H-pyrrol-2-yl)carbonyl]amino}-3-fluoropiperidin-1-yl)-4-[1-(methoxymethyl)-1H-imidazol-2-yl]-1,3-thiazole-5-carboxylic acid]: the inhibition at 1 µM turned out to be 102%. With `CCOC(=O)c1sc(N2CC[C@@H](NC(=O)c3[nH]c(C)c(Cl)c3Cl)[C@@H](OC)C2)nc1-c1ncccc1F` [Example 97, ethyl 2-((3S,4R)-4-(3,4-dichloro-5-methyl-1H-pyrrole-2-carboxamido)-3-methoxypiperidin-1-yl)-4-(3-fluoropyridin-2-yl)thiazole-5-carboxylate] the figure was 91.5%; with `CO[C@H]1CN(c2nc(-c3csc(N)n3)c(C(=O)O)s2)CC[C@H]1NC(=O)c1[nH]c(C)c(Cl)c1Cl` [Example 33, 2′-Amino-2-((3S,4R)-4-{[(3,4-dichloro-5-methyl-1H-pyrrol-2-yl)carbonyl]amino}-3-methoxypiperidin-1-yl)-4,4′-bi-1,3-thiazole-5-carboxylic acid], 101%; with `CCOC(=O)c1sc(N2CC[C@@H](NC(=O)c3[nH]c(C)c(Cl)c3Cl)[C@@H](OC)C2)nc1-c1nc2ccccc2s1` [Example 54], 97.8%. With `CCOC(=O)c1sc(N2CC[C@@H](NC(=O)c3[nH]c(C)c(Cl)c3Cl)[C@@H](OC)C2)nc1-c1nnc(C)o1` [Example 85, Ethyl 2-((3S,4R)-4-{[(3,4-dichloro-5-methyl-1H-pyrrol-2-yl)carbonyl]amino}-3-methoxypiperidin-1-yl)-4-(5-methyl-1,3,4-oxadiazol-2-yl)-1,3-thiazole-5-carboxylate] the figure was 102%.

The values above are taken from patent US20080312255A1 (ASTRAZENECA AB, priority 2007, published 2008).
